Values of other authors as cited in patent US20110086911A1, “NOVEL BISMUTH(III) NSAID COMPOUNDS AND METHODS FOR THEIR USE” (Monash University, priority 2009, published 2011).

Test system: H. pylori strains B128, 251 and 26695
Conditions: comparison values for substances not listed among those tested

Molecule	MIC value [µg/mL]
CNC(=C[N+](=O)[O-])NCCSCc1ccc(CN(C)C)o1.O=C([O-])CC(O)(CC(=O)[O-])C(=O)[O-].[Bi+3] [RBC, ranitidine bismuth citrate]	8
colloidal bismuth subcitrate [CBS]	≥ 12.5
